These results are taken from patent US5219879A, “Heterocyclic steroid compounds” (Du Pont Merck Pharmaceutical Company, priority 1991, dated 1993).

The nature of assay [1]: Lowering Blood Cholesterol Levels in Hamsters. As to conditions: 0.2% (w/w) in feed, 7 days; means ± SEM; N = 10; pair-fed control 133.0 ± 4.0 (N = 20). The assay is classed as in vivo, Male Golden Syrian hamsters. The protocol:
Male Golden Syrian hamsters (50-60 grams) were obtained from Charles River, Inc. (Wilmington, Mass.).
Animals were housed in individual suspension cages and were maintained on a light cycle consisting of 12 hours of light followed by 12 hours of dark. Animals were allowed free access to water and feed (Agway ground chow, RMH 3200, Agway, Syracuse, N.Y.) containing 1% (w/w) corn oil) for a minimum of 4 weeks.
Following this stabilization period a sample of blood was collected by orbital sinus bleeding under light ether anesthesia into heparinized capillary tubes. Plasma was separated by centrifugation (600×g for 10 minutes) and plasma cholesterols were determined by an autoanalyzer (Centrifichem 600, Baker Instruments, Allentown, Pa.). Based upon measured plasma cholesterol values, the animals were randomized into two groups such that the mean plasma cholesterol values were identical for both groups.
Animals in the two groups were then placed on one of two diets: (1) Diet A, consisting of ground chow plus 1% (w/w) corn oil, as described above; or (2) Diet B, consisting of Diet A plus 0.2% (w/w) of a test compound. Animals on Diet B, the treated animals, were allowed free access to feed and water, while animals on Diet A were pair-matched with Diet B animals and served as pair-fed controls. […] Total plasma cholesterol levels were determined as described above. […]

Assay [2] relates to 3-Hydroxy-3-Methylglutaryl Coenzyme A Reductase (HMGR). As to the kind of experiment: 3-Hydroxy-3-Methylglutaryl Coenzyme A Reductase (HMGR) Suppression Assay. Type of assay: cell-based, Chinese Hamster (CHO cells). To be noted: CHO cells, 6 hr. at 37°; read-out: IC50 (amount of compound required to suppress HMGR activity by 50% relative to controls).
Protocol: The ability of the compounds of Formula I to suppress the activity of HMGR, the rate limiting enzyme of cholesterol biosynthesis, was tested as follows.
Chinese Hamster Ovary (CHO) cells were divided twice weekly and were maintained in McCoy's 5A medium supplemented with 1% carbosil delipidated Fetal Bovine System (FBS) (obtained from Gibco Laboratories, Chagrin Falls, Ohio). Cells were harvested during the logarithmic phase of growth and cell cultures were prepared by adding […] cells to each well in a 24 well cluster dish (obtained from Costar, Data Packaging Corp., Cambridge, Mass.) employing 1 ml of the above medium per each well. […] Control cells were treated in an identical fashion to those which received test compound, except they were incubated with the BSA and ethanol suspension only.
Specifically, the medium in each well was aspirated and the cells rinsed with a 50 mM solution of phosphate buffered saline (PBS). One ml of 30 mg/ml of digitonin in CSK buffer (prepared using 10 mM Pipes [piperazine-N,N'-bis (2-ethansulfonic) acid], 100 mM KCl, 2.5 mM MgCl2, 300 mM sucrose, 1 mM EGTA, pH 6.8) was added to each well and incubated for 10 min. at 22° to permeabilize the cells. The buffer was carefully aspirated and the wells were rinsed twice each time with 1 ml of PBS. HMGR activity was measured directly by adding 75 ml of PIB buffer (50 mM potassium phosphate, 1 mM Na2 EDTA, 10 mM dithiothreitol, pH 7.4) to each well and incubating the cells for 30 minutes at 37° as described above. […] The assay mixture was incubated for 30 min. at 37° and terminated by the addition of 70 ml of [^3 H]-mevalonicacid (35,000 DPM/assay), 0.15 mg/ml in 3N HCl.
The reaction was left to lactonize for an additional 30 min. at 37° or overnight at room temperature.
Reaction products were separated by thin layer chromatography on silica gel G (obtained from Analtech, Newark, Del.) developed in an unsaturated environment with acetone:benzene (3:2, v:v). The band corresponding to mevalonolactone was identified by exposure to iodine vapor and was scraped into counting vials. The extent of conversion of starting substrate, HMG-CoA, to mevalonic acid was determined by liquid scintillation counting in Biofluor (obtained from New England Nuclear, Boston, Mass.). Corrections for recovery and blank values were made for each sample. Protein determinations were made by Bio-Rad (Bio-Rad, Richmond, Calif.) dye binding assay according to the manufacturer's instruction using bovine serum albumin as standard. Cellular protein was solubilized from culture dishes by the addition of 20 μl of 16N KOH and assayed directly for protein amount. Suppression values are expressed as the amount of compound required to suppress HMGR activity by 50% relative to that of the controls.
Assay [3] deals with Botyrtis cinerea. As to the kind of experiment: Example C: bean grey mold on broad bean seedlings. Type of assay: in vivo. To be noted: 200 ppm, 100 = 100% disease control. The protocol: (§1) The test compounds were dissolved in acetone in an amount equal to 6% of the final volume and then suspended at a concentration of 200 ppm in purified water containing 250 ppm of the surfactant TREM 0914 (polyhydric alcohol esters). This suspension was sprayed to the point of run-off on broad bean seedlings. The following day plants were inoculated with a spore suspension of Botyrtis cinerea, the causal agent of bean grey mold, and incubated in a saturated humidity chamber at 20° C. for 24 hours when disease ratings were made. […] A dashed entry indicates the specified test was not performed.

In assay [4] the test system is Rhizoctonia solani. As to the kind of experiment: Example F: rice sheath blight on rice seedlings. Type of assay: in vivo. As to conditions: 220 ppm, 0 = no disease control, 100 = 100% disease control. On the procedure: The test compounds were dissolved in acetone in an amount equal to 6% of the final volume and then suspended at a concentration of 220 ppm in purified water containing 250 ppm of the surfactant TREM 014 (polyhydric alcohol esters). This suspension was sprayed to the point of run-off on rice seedlings. The following day plants were inoculated with a mycelial suspension of Rhizoctonia solani, the causal agent of rice sheath blight, and incubated in a saturated humidity chamber at 27° C. for 48 hours and then in a growth chamber at 29° C. for 4 days, when disease ratings were made. […] A dashed entry indicates the specified test was not performed.

The subject of assay [5] is Botrytis cinerea. As to the kind of experiment: Example K: cucumber grey mold on cucumber seedlings. As to conditions: 200 ppm, 100 = 100% disease control. Type of assay: in vivo. The protocol:
The test compounds were dissolved in acetone in an amount equal to 6% of the final volume and then suspended at a concentration of 200 ppm in purified water containing 250 ppm of the surfactant TREM 014 (polyhydric alcohol esters). This suspension was sprayed to the point of run-off on cucumber seedlings. The following day plants were inoculated with a spore suspension of Botrytis cinerea, the causal agent of cucumber grey mold, and incubated in a saturated humidity chamber at 20° C. for 4 days when disease ratings were made. […] A dashed entry indicates the specified test was not performed.

Assay [6] relates to peanut seedlings. As to the kind of experiment: Example B: plant disease control on peanut seedlings. Type of assay: in vivo. To be noted: 200 ppm, 100 = 100% disease control. On the procedure: The test compounds were dissolved in acetone in an amount equal to 6% of the final volume and then suspended at a concentration of 200 ppm in purified water containing 250 ppm of the surfactant TREM […] (polyhydric alcohol esters). This suspension was sprayed to the point of run-off on peanut seedlings. The following day plants were incubated in a saturated humidity chamber at 22° C. for 24 hours, then in a high humidity chamber at 27° C. for 7 days, and then in a growth chamber at 29° C. for 7 days, when disease ratings were made.
In this table, a rating of 100 indicated 100% disease control, and a rating of 0 indicates no disease control relative to untreated plants that were inoculated and incubated as described in each Example. A dashed entry indicates the specified test was not performed.

Assay [7] relates to Venturia inaequalis. As to the kind of experiment: Example A: apple scab on apple seedlings. As to conditions: 200 ppm, sprayed the day before inoculation, 100 = 100% disease control. Type of assay: in vivo. The protocol:
as §1, with “014” for “0914”, “apple” for “broad bean”, “Venturia inaequalis,” for “Botyrtis cinerea,”, “casual” for “causal”, “apple scab,” for “bean grey mold,”, “hours and then in a growth chamber at 22° C. for 11 days,” for “hours”

Assay [8] deals with Botrytis cinerea. As to the kind of experiment: Example J: grape grey mold on grape seedlings. The assay is classed as in vivo. To be noted: 200 ppm, 100 = 100% disease control. The protocol: (§2) The test compounds were dissolved in acetone in an amount equal to 6% of the final volume and then suspended at a concentration of 200 ppm in purified water containing 250 ppm of the surfactant TREM 014 (polyhydric alcohol esters). This suspension was sprayed to the point of run-off on grape seedlings. The following day plants were inoculated with a spore suspension of Botrytis cinerea, the causal agent of grape grey mold, and incubated in a saturated humidity chamber at 20° C. for 96 hours when disease ratings were made. […] A dashed entry indicates the specified test was not performed.

Assay [9] concerns Puccinia recondita. As to the kind of experiment: Example G: wheat leaf rust on wheat seedlings. Type of assay: in vivo. To be noted: 220 ppm, 100 = 100% disease control. The protocol:
The test compounds were dissolved in acetone in an amount equal to 6% of the final volume and then suspended at a concentration of 220 ppm in purified water containing 250 ppm of the surfactant TREM 014 (polyhydric alcohol esters). This suspension was sprayed to the point of run-off on wheat seedlings. The following day plants were inoculated with a spore suspension of Puccinia recondita, the causal agent of wheat leaf rust, and incubated in a saturated humidity chamber at 20° C. for 48 hours and then in a growth chamber at 20° C. for 8 days, when disease ratings were made. […] A dashed entry indicates the specified test was not performed.

Assay [10] deals with Ersiphe graminis f. sp. tritici. The assay can be described thus: Example D: wheat powdery mildew on wheat seedlings. The assay is classed as in vivo. To be noted: 200 ppm, 100 = 100% disease control. On the procedure: The test compounds were dissolved in acetone in an amount equal to 6% of the final volume and then suspended at a concentration of 200 ppm in purified water containing 250 ppm of the surfactant TREM 014 (polyhydric alcohol esters). This suspension was sprayed to the point of run-off on wheat seedlings. […] A dashed entry indicates the specified test was not performed.

Assay [11] concerns Pyricularia oryzae. Type of assay: in vivo. As to conditions: rice seedlings, 200 ppm; 100 = 100% disease control.
Assay [12] has as its system Phytophthora infestans. The assay is classed as in vivo. To be noted: tomato seedlings, 200 ppm; 100 = 100% disease control.
For assay [13], the system named is Plasmopara victicola. As to the kind of experiment: Example I: grape downy mildew on grape seedlings. Type of assay: in vivo. As to conditions: 200 ppm, 100 = 100% disease control. On the procedure:
as §2, with “Plasmopara victicola,” for “Botrytis cinerea,”, “downy mildew,” for “grey mold,”, “24” for “96”, “hours and then in a growth chamber at 20° C. for 7 days, and then held in a saturated humidity chamber at 20° C. for 24 hours,” for “hours”

Regarding `CC(C)CCC[C@@H](C)[C@H]1CO[C@@]2(C)C3=C(CC[C@]12C)[C@@]1(C)CC[C@H](O)C(C)(C)[C@@H]1CC3` [Example 1, 15-Oxa-dihydrolanosterol], the “Plasma Cholesterol, Treated” value in [1] is given as 120. ± 2.0 mg/dl. Also, the IC50 (commonly the concentration needed to halve the response being measured) in assay [2] was found to be 180 nM.
For `CC(C)CCC[C@@H](C)[C@H]1CN=C2C3=C(CC[C@@]21C)[C@@]1(C)CC[C@H](O)C(C)(C)[C@@H]1CC3` [Example 1817], the “disease control rating, Example C” value in assay [3] amounted to 97%. Besides, the “disease control rating, Example F” value in assay [4] is listed as 0%. The “disease control rating, Example K” value in assay [5] is reported as 99%. Besides, the “disease control rating, Example B” value in [6] came to 25%. In assay [7], the “disease control rating, Example A” value turned out to be 90%. In [8], the “disease control rating, Example J” value was determined as 97%. In [9], the “disease control rating, Example G” value worked out at 62%. For the same molecule, the “disease control rating, Example D” value in [10] is recorded as 92%. Besides, in [11], the “disease control rating, Example E” value is 1%. Also, the half-inhibitory concentration (IC50) in assay [2] was 500 nM.
For `CC(C)CCC[C@@H](C)[C@H]1CN=C2C3=C(CC[C@@]21C)[C@@]1(C)CC[C@H](O)C[C@@H]1CC3` [Example 1818], the “disease control rating, Example C” value in assay [3] is 95%. Further, the “disease control rating, Example F” value in [4] was determined as 0%. In assay [5], the “disease control rating, Example K” value worked out at 100%. Moreover, in assay [6], the “disease control rating, Example B” value is 95%. Moreover, in assay [7], the “disease control rating, Example A” value was determined as 99%. The “disease control rating, Example J” value in assay [8] is given as 78%. For the same molecule, the “disease control rating, Example G” value in assay [9] was 100%. In [10], the “disease control rating, Example D” value worked out at 98%. Also, the “disease control rating, Example E” value in [11] amounted to 6%. Moreover, the “disease control rating, Example H” value in [12] is listed as 94%. Further, the “disease control rating, Example I” value in [13] was determined as 100%. In addition, the IC50 in assay [2] came out at 160 nM.
